# Reference: US6258790A, “Antisense modulation of integrin α4 expression” (Isis Pharmaceuticals, Inc., priority 1999, dated 2001)
# Columns and labels:
# [1] = system: leukocyte trafficking into the central nervous system of EAE mice; experiment: Reduction of leukocyte trafficking into the central nervous system of EAE mice (immunostaining of sections); type: in vivo, mouse (CSJLF1); conditions: EAE experiment 4
# Protocol: The pieces were embedded in O.C.T. tissue freezing medium (Ted Pella Inc., Redding, Calif.) on dry ice and methylbutane. Four-micron frozen sections were cut and air dried overnight. The sections were fixed for three minutes in ice-cold acetone and then placed on a Dako Autostainer (Dako Corporation, Carpinteria, Calif.) and treated in the following steps: 5 minutes in 0.03% H2 O2, 5 minutes in 5% donkey serum diluted in PBS, 45 minutes in appropriately diluted primary antibody, 30 minutes in horseradish peroxidase-labeled donkey anti-rat secondary antibody (Jackson Laboratory, Bar Harbor, Me.). Sections were rinsed between treatments with PBS. All the antibodies used were rat anti-mouse from PharMingen (San Diego, Calif.), except BM-8, which was from Bachem Bioscience Inc. (King of Prussia, Pa.). The immunostaining was developed with DAB (Dako Corporation) and counterstained with hematoxylin.
# [2] = system: Mouse experimental autoimmune encephalomyelitis (EAE); experiment: Mouse experimental autoimmune encephalomyelitis (EAE) model for multiple sclerosis; type: in vivo, mouse (CSJLF-1); conditions: scrambled control; for Peak Severity: score 0 to 5
# leukocyte migration = conditions: 3 mg/kg oral; 24 hours after implantation; cited from earlier work
# [3] = system: dextran sulfate-mediated colitis in mice; conditions: cited from earlier work
# [4] = system: Mouse collagen-induced arthritis (CIA); experiment: Mouse collagen-induced arthritis (CIA) model for rheumatoid arthritis; type: in vivo, mouse (DBA/1LacJ); conditions: Table 22; positive control, 5 mg/kg daily IP
# Excerpt: A model for human rheumatoid arthritis has been developed wherein mice are immunized with bovine type II collagen. Anderson et al., J. Immunol. 1991 147, 1189-1193, citing Trentham et al., J. Exp. Med 1977, 146, 857. Swelling and inflammation of the joints follows in approximately 3 weeks, with joint distortion and ankylosis typical of rheumatoid arthritis. This model has been used to study the effects of the antisense oligonucleotide 17044, targeted to mouse integrin α4, on arthritis in mice.
# DBA/1LacJ mice were obtained from Jackson Laboratory, Bar Harbor, Me. Female mice aged 6 to 8 weeks were used and assigned to groups, ten mice per group. On day 0 mice were immunized at the base of the tail with 100 ug of bovine type II collagen which was emulsified in Complete Freund's Adjuvant (CFA). On day 7, a second booster dose of collagen was administered by the same route. On day 14 the mice were injected subcutaneously with 100 ug of lipopolysaccharide (LPS). Weights were recorded weekly. Mice were inspected daily for the onset of CIA, which is characterized by erythema and edema. Upon the onset of the disease, paw widths and rear ankle widths of affected and unaffected joints were measured three times a week using a constant tension caliper. In addition, limbs were clinically evaluated and graded 0-4, where 0=normal; 1=one digit swollen; 2=inflammation present in more than one digit; 3=joint distortion with or without inflammation; and 4=ankylosis, detected by joint manipulation. The progression of all measurements was recorded to day 50. At the end of the observation period for each mouse, all paws were removed and examined histologically.
# The oligonucleotide, the positive control drug (cyclophosphamide, 5 mg/kg), and the vehicle were administered daily to each mouse intraperitoneally (IP) starting on day -3 and continuing for the duration of the study. Each animal received 10 mg/kg as a bolus daily dose.
# In a preliminary study, a single 10 mg/kg daily dose of […] was administered from the time of disease induction to the conclusion of the study 50 days later. Arthritis incidence was reduced from 70 to 30% in the ISIS 17044-treated group.
# [5] = system: C8161 human melanoma cells; experiment: Experimental metastasis assay, C8161 cells injected into athymic nude mice; type: in vivo, human melanoma cells in athymic nude mice
# Protocol: To evaluate the role of integrin α4 in metastasis, experimental metastasis assays are performed by injecting 1×10^5 C8161 cells into the lateral tail vein of athymic nude mice. C8161 is a human melanoma cell line. […] Four-week-old female athymic nude mice (Harlan Sprague Dawley) are used. Animals are maintained under the guidelines of the NIH. Groups of 4-8 mice each are tested in experimental metastasis assays.
# Treatment of C8161 cells with antisense oligonucleotide ISIS 27104, complementary to human integrin α4, is performed in the presence of the cationic lipid, LIPOFECTIN (Gibco/BRL, Gaithersburg, Md.). Cells are seeded in 60 mm tissue culture dishes at 10^6 cells/ml and incubated at 37° C. for 3 days, washed with Opti-MEM (Gibco/BRL) 3 times and 100 μl of Opti-MEM medium is added to each well. 0.5 μM oligonucleotide and 15 μg/ml LIPOFECTIN are mixed at room temperature for 15 minutes. 25 μl of the oligonucleotide-LIPOFECTIN mixture is added to the appropriate dishes and incubated at 37° C. for 4 hours. […] After 4 hours, 500 U/ml TNF-α is added to the appropriate wells and incubated for 18 hours at which time cells are removed from the plates, counted and injected into athymic nude mice. […]
# After 4 weeks, mice are sacrificed, organs are fixed in Bouin's fixative and metastatic lesions on lungs are scored with the aid of a dissecting microscope.
# human integrin α4 [6] = experiment: Integrin α4 protein expression in A375 cells after electroporation of oligonucleotide (flow cytometry); type: cell-based
# Protocol: A375 cells were treated with ISIS 107245, 107248, 107252, 107255 and 107259 by electroporation at 175 volts, r=1, c=1000, 0.2 ml Opti-MEM, 1×10^6 cells /ml, 2 mm gap electrode using a BTX Electro Cell Manipulator 600 (Genetronics, San Diego Calif.). Oligonucleotide concentrations were 1, 3, 10 and 30 μM. Cells were harvested 24 hours after oligonucleotide treatment and strained with 2 ug/ml CD49d-FITC for flow cytometry as in the previous examples.
# ISIS 107248 was compared directly to ISIS 27104 for ability to inhibit integrin α4 expression in A375 melanoma cells. Oligonucleotides were electroporated into cells as in the previous example.
# human integrin α4 [7] = experiment: Inhibition of human integrin α4 protein levels by antisense oligonucleotides (LIPOFECTIN, flow cytometry with CD49d-FITC) in A375 melanoma cells; type: cell-based; parameters: % Inhib.: tested at 200 nM
# [8] = Table 24, A375 cells, lipofectin, as Example 8
compound,measurement,setting,value
"17614 (GCCGACACCCGTTCGTTCGG; phosphorothioate, 2'-MOE/deoxy, further chemistry not given here) [compound 17614]","reduction of cellular influx, scrambled control",[1],not effective in reducing cellular influx
same,Days to Onset,"[2]; EAE Experiment 3, 1 mg/kg",16.86 days
same,Disease Incidence,"[2]; EAE Experiment 3, 1 mg/kg",7/7
same,Peak Severity,"[2]; EAE Experiment 3, 1 mg/kg",2.14
same,Days to Onset,"[2]; EAE Experiment 4, 2 mg/kg SC",14.14 days
same,Disease Incidence,"[2]; EAE Experiment 4, 2 mg/kg SC",7/7
same,Peak Severity,"[2]; EAE Experiment 4, 2 mg/kg SC",1.86
same,Days to Onset,"[2]; EAE Experiment 5, 2 mg/kg SC",9 days
same,Disease Incidence,"[2]; EAE Experiment 5, 2 mg/kg SC",6/7
same,Peak Severity,"[2]; EAE Experiment 5, 2 mg/kg SC",1.71
COc1ccc2c(c1)c(CC(=O)O)c(C)n2C(=O)c1ccc(Cl)cc1 [Indomethacin],reduction in mean leukocyte count compared to vehicle control,leukocyte migration,75-80%
TGF-β,dextran sulfate-mediated colitis,[3],protect against dextran sulfate-mediated colitis in mice
"O=P1(N(CCCl)CCCl)NCCCO1 (centres unmarked) [Cyclophosphamide, cyclophosphamide, reference compound]",# Paws/Mouse (mean number of affected paws at termination),[4],0 ± 0
same,Severity (total clinical score/total number of mice in group),[4],0 ± 0
"27104 (CCCAAGCCATGCGCTCTCGG; phosphorothioate, 2'-MOE, 5-methyl-C, further chemistry not given here) [compound 27104]",enhanced metastatic ability of C8161 from TNF-α treatment,[5]; TNF-α treated cells,eliminates the enhanced metastatic ability
same,metastatic potential of C8161 cells,[5]; cells treated with oligonucleotide before injection,decreases the metastatic potential
same,% Control,"human integrin α4 [6]; Table 25, 1 nM as printed, 24 hours",86.2%
same,% Control,"human integrin α4 [6]; Table 25, 10 nM, 24 hours",63.2%
same,% Control,"human integrin α4 [6]; Table 25, 30 nM, 24 hours",35.3%
same,% Control,"human integrin α4 [6]; Table 26, 1 μM",86.2%
same,% Inhib.,"human integrin α4 [6]; Table 26, 1 μM",13.8%
same,% Control,"human integrin α4 [6]; Table 26, 3 μM",63.2%
same,% Inhib.,"human integrin α4 [6]; Table 26, 3 μM",36.8%
same,% Control,"human integrin α4 [6]; Table 26, 10 μM",35.3%
same,% Inhib.,"human integrin α4 [6]; Table 26, 10 μM",64.7%
same,% Control,"human integrin α4 [6]; Table 26, 30 μM",27.1%
same,% Inhib.,"human integrin α4 [6]; Table 26, 30 μM",72.9%
same,inhibition (Example 10),"human integrin α4 [7]; Example 10 assay, dose not stated",≥ 40%
same,inhibition (Example 11),"human integrin α4 [7]; Example 11 assay, dose not stated",≥ 40%
same,% Control,"human integrin α4 [7]; Table 4, 10 nM",69%
same,% Inhib.,"human integrin α4 [7]; Table 4, 10 nM",31%
same,% Control,"human integrin α4 [7]; Table 4, 30 nM",64%
same,% Inhib.,"human integrin α4 [7]; Table 4, 30 nM",36%
same,% Control,"human integrin α4 [7]; Table 4, 100 nM",49%
same,% Inhib.,"human integrin α4 [7]; Table 4, 100 nM",51%
same,% Control,"human integrin α4 [7]; Table 4, 300 nM",39%
same,% Inhib.,"human integrin α4 [7]; Table 4, 300 nM (highest dose)",61%
same,% Control,"human integrin α4 [7]; Table 6, 10 nM",84%
same,% Inhib.,"human integrin α4 [7]; Table 6, 10 nM",16%
same,% Control,"human integrin α4 [7]; Table 6, 30 nM",82%
same,% Inhib.,"human integrin α4 [7]; Table 6, 30 nM",18%
same,% Control,"human integrin α4 [7]; Table 6, 100 nM",59%
same,% Inhib.,"human integrin α4 [7]; Table 6, 100 nM",41%
same,% Control,"human integrin α4 [7]; Table 6, 300 nM",37%
same,% Inhib.,"human integrin α4 [7]; Table 6, 300 nM (highest dose)",63%
same,% Control,human integrin α4 [7]; [8],69%
same,% Inhib.,human integrin α4 [7]; [8],31%
